Test results reported in ChEMBL document CHEMBL6182916, “Unexpected Discovery of a Novel Triphenylphosphonium Alkylalcohol That Triggers Cancer Cell Death via Mitophagy and Ferroptosis” (J Med Chem, 2025).
One block for each compound: values may come before it. Calls of active or inactive are those of the source. The rule behind the calls is not given here.

Columns and labels:
A549 = test: Antiproliferative activity against human A549 cells assessed as inhibition of cell growth measured after 72 hrs by MTT assay; type: functional, cell-based; conditions: A549, 72 h
NCI-H1975 = test: Antiproliferative activity against human NCI-H1975 cells assessed as inhibition of cell growth measured after 72 hrs by MTT assay; type: functional, cell-based; conditions: NCI-H1975, 72 h
MDA-MB-231 = test: Antiproliferative activity against human MDA-MB-231 cells assessed as inhibition of cell growth measured after 72 hrs by MTT assay; type: functional, cell-based; conditions: MDA-MB-231, 72 h
HCC827 [1] = test: Induction of ROS generation in human HCC827 cells assessed as increase in NAD+/NADH ratio at 1 uM incubated for 4 hrs by absorbance based analysis; type: functional, cell-based
[2] = Drug accumulation in mitochondria of human HCC827 cells at 10 uM incubated for 5 mins; type: ADME; conditions: hcc827, 5 min
HCC827 [3] = test: Induction of apoptosis in human HCC827 cells assessed as late apoptotic cells at 1 uM measured after 48 hrs by annexin V and PI staining based flow cytometry analysis (reference value: 1.29%); type: functional
HCC827 [4] = test: Induction of apoptosis in human HCC827 cells assessed as viable cells at 1.0 uM measured after 48 hrs by annexin V and PI staining based flow cytometry analysis (reference value: 96.74%); type: functional; conditions: read-out: Activity
Mitochondrial membrane = test: Induction of mitochondrial membrane depolarization in human HCC827 cells assessed as increase in J-monomer ratio at 0.5 uM incubated for 4 hrs by JC-1 staining based flow cytometric analysis; type: cell membranes
[5] = Antiproliferative activity against human BEAS-2B cells assessed as inhibition of cell growth measured after 72 hrs by MTT assay; type: toxicity, cell-based
[6] = Antiproliferative activity against human HUVEC cells assessed as inhibition of cell growth measured after 72 hrs by MTT assay; type: toxicity, cell-based
SK-LU-1 = test: Antiproliferative activity against human SK-LU-1 cells assessed as inhibition of cell growth measured after 72 hrs by MTT assay; type: functional, cell-based; conditions: SK-LU-1, 72 h
HCC827 [7] = test: Induction of ROS generation in human HCC827 cells assessed as decrease in NADH content at 1 uM incubated for 4 hrs by absorbance based analysis; type: functional, cell-based
HCC827 [8] = test: Induction of apoptosis in human HCC827 cells assessed as early apoptotic cells at 1 uM measured after 48 hrs by annexin V and PI staining based flow cytometry analysis (reference value: 0.70%); type: functional
[9] = Antiproliferative activity against human Osimertinib-resistant HCC827 cell assessed as inhibition of cell growth measured after 72 hrs by MTT assay; type: functional, cell-based
HCC827 [10] = test: Antiproliferative activity against human HCC827 cells assessed as inhibition of cell growth measured after 72 hrs by MTT assay; type: functional, cell-based; conditions: HCC827, 72 h
HCC827 [11] = test: Induction of cell cycle arrest in human HCC827 cells assessed as accumulation of cells at S phase at 0.4 uM incubated for 24 hrs by PI staining based flow cytometry analysis (reference value: 26.41%); type: functional
[12] = Antiproliferative activity against human LO2 cells assessed as inhibition of cell growth measured after 72 hrs by MTT assay; type: toxicity, cell-based, L02
[13] = system: Osimertinib-resistant NCI-H1975 cell; test: Antiproliferative activity against human Osimertinib-resistant NCI-H1975 cell assessed as inhibition of cell growth measured after 72 hrs by MTT assay; type: functional, cell-based
NCI-H1650 = test: Antiproliferative activity against human NCI-H1650 cells assessed as inhibition of cell growth measured after 72 hrs by MTT assay; type: functional, cell-based; conditions: NCI-H1650, 72 h
HCC827 [14] = test: Induction of mitochondrial dysfunction in human HCC827 cells assessed as cytochrome C release in cytoplasm at 1 uM measured after 72 hrs by laser scanning confocal fluorescence microscopic analysis; type: functional, cell-based
NCI-H1299 = test: Antiproliferative activity against human NCI-H1299 cells assessed as inhibition of cell growth measured after 72 hrs by MTT assay; type: functional, cell-based; conditions: NCI-H1299, 72 h
NCI-H460 = test: Antiproliferative activity against human NCI-H460 cells assessed as inhibition of cell growth measured after 72 hrs by MTT assay; type: functional, cell-based; conditions: NCI-H460, 72 h
[15] = Drug accumulation in mitochondria of human HCC827 cells at 10 uM incubated for 10 mins in presence of CCCP by RP-HPLC-UV analysis; type: ADME; conditions: hcc827, 10 min
A-375 [16] = test: Antiproliferative activity against human A-375 cells assessed as inhibition of cell growth measured after 72 hrs by MTT assay; type: functional, cell-based; conditions: A-375, 72 h
MCF7 = test: Antiproliferative activity against human MCF7 cells assessed as inhibition of cell growth measured after 72 hrs by MTT assay; type: functional, cell-based; conditions: MCF7, 72 h
HCC827 [17] = test: Inhibition of colony formation in human HCC827 cells at 0.2 uM incubated for 72 hrs by crystal violet staining based analysis; type: functional, cell-based
HCC827 [18] = test: Induction of apoptosis in human HCC827 cells assessed as necrotic cells at 1 uM measured after 48 hrs by annexin V and PI staining based flow cytometry analysis (reference value: 1.18%); type: functional
A-375 [19] = test: Anticancer activity against human A-375 cells assessed as inhibition of cell growth by MTT assay; type: functional, cell-based
HCT-116 = test: Antiproliferative activity against human HCT-116 cells assessed as inhibition of cell growth measured after 72 hrs by MTT assay; type: functional, cell-based; conditions: HCT-116, 72 h
HCC827 [20] = test: Induction of cell cycle arrest in human HCC827 cells assessed as accumulation of cells at G1 phase at 0.4 uM incubated for 24 hrs by PI staining based flow cytometry analysis (reference value: 66.44%); type: functional
[21] = Antiproliferative activity against HEK293T cells assessed as inhibition of cell growth measured after 72 hrs by MTT assay; type: toxicity, cell-based, HEK-293T; conditions: human
HCC827 [22] = test: Induction of cell cycle arrest in human HCC827 cells assessed as accumulation of cells at G2 phase at 0.4 uM incubated for 24 hrs by PI staining based flow cytometry analysis (reference value: 7.15%); type: functional
[23] = Drug localization in mitochondria of human HCC827 cells assessed as increase in green fluorescence by measuring pearson correlation coefficient at 10 uM incubated for 10 mins by mito-tracker green dye based confocal scanning microscopy analysis; type: ADME; conditions: hcc827, 10 min
[24] = Drug metabolism in human HCC827 cells mitochondria assessed as 2-(2-(4-hydroxystyryl)-4H-chromen-4-ylidene)malononitrile hydrolysis at 10 uM incubated for 5 mins by fluorescence emission spectroscopy analysis; type: ADME; conditions: hcc827, 5 min
[25] = Drug uptake in human HCC827 cells mitochondria assessed as increase in fluorescence intensity at 10 uM by fluorescence emission spectroscopy analysis; type: ADME; conditions: hcc827, 10 µM
HCC827 [26] = test: Antitumor activity against human HCC827 cells xenografted in female nude mouse model assessed as suppression of tumor growth at 100 mg/kg, ip measured every two days for 14 days; type: functional, organism-based; conditions: time 14.0 day
[27] = Drug localization in mitochondria of human HCC827 cells assessed as increase in green fluorescence by measuring pearson correlation coefficient at 5 uM incubated for 10 mins by mito-tracker green dye based confocal scanning microscopy analysis; type: ADME; conditions: hcc827, 10 min

Compound: O=C(CCCCC(CCSCc1ccccc1)SCc1ccccc1)OCCCCCCCCCC[P+](c1ccccc1)(c1ccccc1)c1ccccc1 (stereo not given)
IC50 (A-375 [19]): 100 nM

Compound: OCCCCC[P+](c1ccccc1)(c1ccccc1)c1ccccc1
IC50 (A-375 [19]): > 40000 nM

Compound: COc1cc2ncnc(Nc3ccc(F)c(Cl)c3)c2cc1OCCCN1CCOCC1
Activity (HCC827 [26]): Active

Compound: N#CC(C#N)=C1C=C(/C=C/c2ccc(O)cc2)Oc2ccccc21
Drug uptake [27]: 0.21

Continued, in another order:

IC50 (A549): 1070 nM | IC50 (NCI-H1975): 320 nM | IC50 (MDA-MB-231): 550 nM | Drug uptake [2]: ~ 90% | Activity (Mitochondrial membrane): inactive | IC50 (SK-LU-1): 540 nM | IC50 (HCC827 [10]): 230 nM | IC50 [13]: 570 nM | IC50 (NCI-H1650): 710 nM | IC50 (NCI-H1299): > 5000 nM | IC50 (NCI-H460): 950 nM | Drug uptake [15]: Not_active | IC50 (A-375 [16]): 410 nM | IC50 (MCF7): 310 nM | IC50 (A-375 [19]): 410 nM | IC50 (HCT-116): 940 nM
Compound: OCCCCCCCCCC[P+](c1ccccc1)(c1ccccc1)c1ccccc1.[Br-]
Activity (HCC827 [1]): Active | Activity (HCC827 [3]): 4.02% | viability at 1 µM (HCC827 [4]): 94.1% | IC50 at 72 h [5]: 1140 nM | IC50 at 72 h [6]: 2380 nM | Activity (HCC827 [7]): Active | Activity (HCC827 [8]): 2.5% | IC50 [9]: 340 nM | Activity (HCC827 [11]): 19.19% | IC50 at 72 h [12]: 3120 nM | Activity (HCC827 [14]): inactive | inhibition (HCC827 [17]): Weak_effect | Activity (HCC827 [18]): 0.7% | Activity (HCC827 [20]): 74.82% | IC50 at 72 h [21]: 2790 nM | Activity (HCC827 [22]): 6%

Drug uptake [23]: 0.9 | Drug metabolism [24]: metabolite_detected | Drug uptake [25]: Active
Compound: N#CC(C#N)=C1C=C(/C=C/c2ccc(OC(=O)OCCCCCCCCCC[P+](c3ccccc3)(c3ccccc3)c3ccccc3)cc2)Oc2ccccc21.[Br-]

IC50 (A549): 6120 nM | IC50 (NCI-H1975): > 5000 nM | IC50 (MDA-MB-231): 6290 nM | Drug uptake [2]: 52% | Activity (Mitochondrial membrane): inactive | IC50 (SK-LU-1): > 5000 nM | IC50 (HCC827 [10]): > 5000 nM | IC50 [13]: 5320 nM | IC50 (NCI-H1650): 1970 nM | IC50 (NCI-H1299): > 10000 nM | IC50 (NCI-H460): 3090 nM | Drug uptake [15]: Not_active | IC50 (A-375 [16]): 5400 nM | IC50 (MCF7): 6450 nM | IC50 (HCT-116): 7730 nM
Compound: OCCCCCCCCCC[P+](c1ccc(C(F)(F)F)cc1)(c1ccc(C(F)(F)F)cc1)c1ccc(C(F)(F)F)cc1.[Br-]
Activity (HCC827 [1]): Active | Activity (HCC827 [3]): 2.72% | viability at 1 µM (HCC827 [4]): 92.1% | IC50 at 72 h [5]: 6900 nM | IC50 at 72 h [6]: > 40000 nM | Activity (HCC827 [7]): Active | Activity (HCC827 [8]): 1.3% | IC50 [9]: > 5000 nM | Activity (HCC827 [11]): 26.29% | IC50 at 72 h [12]: > 40000 nM | Activity (HCC827 [14]): inactive | inhibition (HCC827 [17]): Weak_effect | Activity (HCC827 [18]): 2.87% | Activity (HCC827 [20]): 69.33% | IC50 at 72 h [21]: 13800 nM | Activity (HCC827 [22]): 4.38%
